# Where two headings read alike, the source gives them in different places.
# Legend:
# Type in all cases: cell-based
# [1] = tested on: human adenocarcinoma cell line HT 29; test: Induction of apoptosis (YOPRO-1 / Hoechst 33342 staining, count of apoptotic cells); settings: HT 29 cells, mean (MW), spontaneous apoptosis rate 2.48 % ± 0.58, unit only printed
# Experimental: (§1) Human colon carcinoma cells HT-29 were purchased from ATCC and cultivated under standard conditions (37°C, 5% CO2, McCoy 5A medium, 10% fetal calf serum, penicillin, streptomycin). For experimentation, cells were seeded in cell culture dishes at appropriate density, stimulated and analysed as described in the following section.
# Apoptotic macrophages and colon carcinoma cells were identified by microscopic observation of typical morphological changes (blebbing, generation of apoptotic bodies) and quantitated by YOPRO-1 staining and Hoechst 33342 dye. The percentage of apoptotic cells was counted using a microscope fitted with mercury light source and fluorescence assembly in combination with a computer-assisted morphometry system. Apoptosis was confirmed by PARP cleavage detected by Western Blotting and single cell electrophoresis (COMET-assay).
# (§2) Induction of apoptosis was determined in the human adenocarcinoma cell line HT 29 as described in Example 1; spontaneous apoptosis rate was 2.48 % ± 0.58. The activation of acidic sphingomyelinase (aSMase) was analyzed in the same cell line as described in Example 1, basal activity amounts to 278,4 pmolµg^-1min^-1 ± 41,3.
# [2] = target: T1, acidic sphingomyelinase (aSMase) (Homo sapiens, UniProt P17405); test: SMase activity determination (activation of aSMase in cells, NBD-sphingomyelin hydrolysis); settings: HT 29 cells, mean (MW), basal activity 278,4 ± 41,3, unit only printed
# T1 construct: endogenous in cells; host or cells: HT 29 (human adenocarcinoma cell line)
# T1 sequence (P17405 47-631): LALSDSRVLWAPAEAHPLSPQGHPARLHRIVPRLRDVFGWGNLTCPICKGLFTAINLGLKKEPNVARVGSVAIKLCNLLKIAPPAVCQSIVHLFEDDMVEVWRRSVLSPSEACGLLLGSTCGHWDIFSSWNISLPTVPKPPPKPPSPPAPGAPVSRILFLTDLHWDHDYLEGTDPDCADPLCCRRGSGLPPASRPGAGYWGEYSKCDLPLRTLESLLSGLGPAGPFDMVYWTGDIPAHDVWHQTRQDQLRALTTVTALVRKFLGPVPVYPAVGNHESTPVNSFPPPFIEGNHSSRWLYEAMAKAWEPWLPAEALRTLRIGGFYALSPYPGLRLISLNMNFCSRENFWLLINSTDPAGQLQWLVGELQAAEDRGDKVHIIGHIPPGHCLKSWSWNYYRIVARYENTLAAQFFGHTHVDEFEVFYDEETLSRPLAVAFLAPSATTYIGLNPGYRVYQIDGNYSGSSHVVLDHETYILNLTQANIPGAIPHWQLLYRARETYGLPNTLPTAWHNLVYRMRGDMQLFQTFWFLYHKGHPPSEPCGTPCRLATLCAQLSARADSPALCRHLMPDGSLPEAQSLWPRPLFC
# Experimental: Activities of aSMase and nSMase were determined by hydrolysis of a fluorogenic C12-analogue substrate [(7-Nitro-2-1,3-benzoxadiazol-4-yl)amino-dodecyl-D-erythro-sphingosine, NBD-sphingomyelin, Molecular Probes, subsequent separation of the labelled NBD ceramide analog by thin layer chromatography and data analysis at conditions as described in detail previously.
# as §2
# [3] = tested on: HT-29 colon carcinoma cells; test: Proliferation (DNA synthesis, colorimetric BrdU-ELISA); settings: Homo sapiens
# Experimental: as §1
# Quantitative determination of DNA synthesis in replicating cells was analyzed using commercial available test kits (colorimetric BrdU-ELISA, Roche-Diagnostics) according to the manufacturer's instructions. For these experiments, HT-29 colon carcinoma cells were seeded in 96-well plates at 40% confluence, cultivated overnight (1% FCS), incubated for 16 h with the test compounds (concentration range: three orders of magnitude), pulsed labelled with BrdU and fixed. The amount of incorporated BrdU was analysed using specific antibodies (Roche Diagnostics, Mannheim, Germany) and subsequent colorimetric reaction. The rate of DNA-synthesis in untreated control cells with standard medium was determined and compared with that in a medium contained the test compounds.
# Semiconfluent HT-29 cells were incubated with compound 4 at concentration as indicated over night and DNA synthesis was analyzed on the basis of BrdU-incorporation and subsequent immunological quantification. Compound 4 inhibited cellular proliferative activity with an apparent IC50 of among 6,7 µM. […] Due to previous calculation using dependent variables over several orders of magnitudes, no standard deviation is given in Table 1 presenting the averaged half maximal concentrations for inhibition of proliferative activity.
# [4] = HT-29 cells, BrdU incorporation, averaged half maximal concentrations, no standard deviation, read-out: Anti-Prolif. IC50
# [5] = semiconfluent HT-29 cells, incubation over night, BrdU-incorporation, read-out: apparent IC50 / half maximal antiproliferative activity
SMILES,Induction of apoptosis 5 μM MW [1],Induction of apoptosis 10 μM MW [1],Induction of apoptosis 30 μM MW [1],aSMase-activity 5 μM MW [2],aSMase-activity 20 μM MW [2],"IC50 [3, 4]","IC50 [3, 5]"
"CCCCCC(=O)N[C@@H](CO)[C@H](O)/C1=C/CCCCCC1 [Compound 3, Hexanoic acid [(1S,2R)-2-((E)-cyclooct-1-enyl)-2-hydroxy-1-hydroxymethyl-ethyl]-amide]","2,9%","7,4%","5,7%","403,8 pmolµg^-1min^-1","1108,4 pmolµg^-1min^-1",3.1 µM,
"CCCCCC(=O)N[C@@H](CO)[C@H](O)C1=CCCC1 [Compound 2, Hexanoic acid ((1S,2R)-2-cyclopent-1-enyl-2-hydroxy-1-hydroxymethyl-ethyl)-amide]","15,7%","4,9%","5,9%","347,0 pmolµg^-1min^-1","1185,4 pmolµg^-1min^-1",4.6 µM,
"CC(C)(C)OC(=O)N1[C@H]([C@H](O)C2=CCCC2)COC1(C)C [Compound 4, (S)-4-((R)-Cyclopent-1-enyl-hydroxy-methyl)-2,2-dimethyloxazolidine-3-carboxylic acid tert-butyl ester]","3,95%","8,5%","10,2%","574,2 pmolµg^-1min^-1","812,7 pmolµg^-1min^-1",6.7 µM,~6.7 µM
"CCCCCC(=O)N[C@@H](CO)[C@@H](O)c1ccc([N+](=O)[O-])cc1 [Compound 1, Hexanoic acid [(1S,2S)-2-hydroxy-1-hydroxymethyl-2-(4-nitrophenyl)-ethyl]-amide]","1,3%","8,4%","8,9%","541,3 pmolµg^-1min^-1","631,0 pmolµg^-1min^-1",2.4 µM,
"CCCCCCCCCCCCC/C=C/[C@@H](O)[C@H](CO)NC(=O)CCCCC [Ceramide C6, reference compound]","2,6%","6,4%","12,4%","427,3 pmolµg^-1min^-1","743,4 pmolµg^-1min^-1",4 µM,~4 µM
"CC(C)(C)OC(=O)N1[C@H]([C@H](O)/C2=C/CCCCCC2)COC1(C)C [Compound 5, (S)-4-[(R)-((E)-Cyclooct-1-enyl)-hydroxy-methyl]-2,2-dimethyloxazolidine-3-carboxylic acid tert-butyl ester]","6,4%","7,7%","9,2%","447,3 pmolµg^-1min^-1","967,3 pmolµg^-1min^-1",3.2 µM,
